The values below come from patent publication US8476265B2, “Compounds-801” (AstraZeneca AB, priority 2010, dated 2013).

Counter-ions that a name gives are not always drawn.

The target of one assay is T1, Adrenergic β2 (Homo sapiens, UniProt P07550).
T1 construct: Adherent H292 cells are removed from tissue culture flasks by treatment with Accutase™ cell detachment solution; endogenous in cells; host or cells: H292 cells
In words: Adrenergic β2 mediated cAMP production in H292 cells (AlphaScreen), concentration response. The note with it: for EC50: 60 min, 300 μM rolipram, read-out: β2 pEC50 (converted); for β2 Intrinsic Activity: fraction relative to the maximum activity determined for formoterol. Type of assay: cell-based. As to the method:
Assay for Adrenergic 132 Mediated cAMP Production
H292 cells are grown in 225 cm2 flasks incubator at 37° C., 5% CO2 in RPMI medium containing 10% (v/v) FBS (foetal bovine serum) and 2 mM L-glutamine.
Adherent H292 cells re removed from tissue culture flasks by treatment with Accutase™ cell detachment solution for 15 minutes. Flasks are incubated for 15 minutes in a humidified incubator at 37° C., 5% CO2. Detached cells are re-suspended in RPMI media (containing 10% (v/v) FBS and 2 mM L-glutamine) at 0.1×10^6 cells per mL. 10000 cells in 100 μl, are added to each well of a tissue-culture-treated 96-well plate and the cells incubated overnight in a humidified incubator at 37° C., 5% CO2. The culture media is removed and cells are washed twice with 100 μL assay buffer and replaced with 50 μl assay buffer (HBSS solution containing 10 mM HEPES pH7.4 and 5 mM glucose). Cells are rested at room temperature for 20 minutes after which time 25 μl of rolipram (1.2 mM made up in assay buffer containing 2.4% (v/v) dimethylsulphoxide) is added. Cells are incubated with rolipram for 10 minutes after which time test compounds are added and the cells are incubated for 60 minutes at room temperature. The final rolipram concentration in the assay is 300 μM and final vehicle concentration is 1% (v/v) dimethylsulphoxide. The reaction is stopped by removing supernatants, washing once with 100 μL assay buffer and replacing with 50 μL lysis buffer. The cell monolayer is frozen at −80° C. for 30 minutes (or overnight).
AlphaScreen™ cAMP detection
The concentration of cAMP (cyclic adenosine monophosphate) in the cell lysate is determined using AlphaScreen™ methodology. The frozen cell plate is thawed for 20 minutes on a plate shaker then 10 μL of the cell lysate is transferred to a 96-well white plate. 40 μL of mixed AlphaScreen™ detection beads pre-incubated with biotinylated cAMP, is added to each well and the plate incubated at room temperature for 3 hours in the dark. The AlphaScreen™ signal is measured using an EnVision spectrophotometer (Perkin-Elmer Inc.) with the recommended manufacturer's settings. cAMP concentrations are determined by reference to a calibration curve determined in the same experiment using standard cAMP concentrations. Concentration response curves for agonists are constructed and data is fitted to a four parameter logistic equation to determine both the pEC50 and Intrinsic Activity. Intrinsic Activity is expressed as a fraction relative to the maximum activity determined for formoterol in each experiment.
For orientation: Cyclic AMP is a second messenger, typically raised through Gs and lowered through Gi signalling.

Assay [1] concerns the target T2, human muscarinic acetylcholine M3 receptor (Homo sapiens, UniProt P20309).
T2 construct: expressed in transfected cells; host or cells: CHO-K1 (Chinese Hamster Ovary) cell membranes
In words: Muscarinic 3 receptor binding assay ([3H]NMS competition, SPA), pIC50. The note with it: [3H]NMS 0.1 nM, CHO-K1 cell membranes expressing human M3 receptor. As to the method: Muscarinic 3 Receptor Binding Assay
The affinity (pIC50) of compounds binding to the M3 receptor is determined by competition binding of [^3H]N-methyl scopolamine (NMS) to CHO-K1 (Chinese Hamster Ovary) cell membranes expressing the human muscarinic acetylcholine M3 receptor (M3-ACh) in a scintillation proximity assay (SPA) format.
SPA beads are precoated with membranes and then incubated at 2 mg of beads per well with serial dilutions of compounds of the invention, [^3H]NMS at 0.1 nM, quarter Kd (experimentally determined dissociation constant) and assay buffer (20 mM HEPES pH 7.4 containing 5 mM MgCl2 and 0.1% (w/v) bovine serum albumin). The assay is conducted in a final volume of 200 μL, in the presence of 1% (v/v) dimethyl sulphoxide (DMSO). Total binding of [^3H]NMS is determined in the absence of competing compound and non-specific binding of [^3H]NMS is determined in the presence of 1 μM atropine. The plates are incubated for 16 hours at room temperature and then read on Wallac Microbeta™ using a normalised ^3H protocol. The pIC50, defined as the negative logarithm of the molar concentration of compound required for 50% reduction in specific [^3H]-NMS binding, is determined.

T1 sequence (P07550 whole entry): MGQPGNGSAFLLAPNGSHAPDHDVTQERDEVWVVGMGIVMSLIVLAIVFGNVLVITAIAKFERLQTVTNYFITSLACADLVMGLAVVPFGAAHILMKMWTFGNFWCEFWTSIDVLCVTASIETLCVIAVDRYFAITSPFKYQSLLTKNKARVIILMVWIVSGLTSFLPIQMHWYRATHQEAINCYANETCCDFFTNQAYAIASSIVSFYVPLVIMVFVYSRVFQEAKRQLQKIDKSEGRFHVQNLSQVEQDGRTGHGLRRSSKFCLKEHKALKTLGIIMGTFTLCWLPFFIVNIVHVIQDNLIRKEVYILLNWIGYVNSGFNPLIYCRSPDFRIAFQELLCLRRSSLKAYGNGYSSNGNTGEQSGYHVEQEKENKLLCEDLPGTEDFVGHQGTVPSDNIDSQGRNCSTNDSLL
T2 sequence (P20309 whole entry): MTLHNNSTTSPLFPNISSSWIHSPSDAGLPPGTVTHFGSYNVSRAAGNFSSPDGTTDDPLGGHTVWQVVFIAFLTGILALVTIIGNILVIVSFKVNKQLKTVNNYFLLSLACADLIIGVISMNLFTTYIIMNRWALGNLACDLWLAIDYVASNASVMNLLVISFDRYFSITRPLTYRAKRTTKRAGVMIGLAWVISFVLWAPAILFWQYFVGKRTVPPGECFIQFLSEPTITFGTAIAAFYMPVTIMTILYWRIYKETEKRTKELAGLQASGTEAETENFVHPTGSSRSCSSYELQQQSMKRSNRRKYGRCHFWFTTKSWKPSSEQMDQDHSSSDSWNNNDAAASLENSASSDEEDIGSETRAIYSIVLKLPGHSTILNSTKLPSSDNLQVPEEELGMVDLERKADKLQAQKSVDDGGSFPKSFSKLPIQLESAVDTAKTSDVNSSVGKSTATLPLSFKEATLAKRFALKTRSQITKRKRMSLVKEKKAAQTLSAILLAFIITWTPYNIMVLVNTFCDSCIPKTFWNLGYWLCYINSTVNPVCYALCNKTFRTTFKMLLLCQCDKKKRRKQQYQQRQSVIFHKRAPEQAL

By IC50 is commonly meant the concentration that inhibits the measured activity by half. Low values mean higher potency, high ones lower potency. In the case of `CCN(CCNCCc1ccc(O)c2[nH]c(=O)sc12)C(=O)CCOCCc1ccc(CCN2CCC3(CC2)CN(C(=O)c2csc(C(C)C)n2)CCO3)cc1` [Example 1, N-Ethyl-N-(2-(2-(4-hydroxy-2-oxo-2,3-dihydrobenzo[d]thiazol-7-yl)ethylamino)ethyl)-3-(4-(2-(4-(2-isopropylthiazole-4-carbonyl)-1-oxa-4,9-diazaspiro[5.5]undecan-9-yl)ethyl)phenethoxy)propanamide ditrifluoroacetate], on Adrenergic β2, the EC50 is 31.6 nM and the “β2 Intrinsic Activity” value is given as 0.7. The same compound gave an IC50 in assay [1] of 2 nM.

With `CC(C)c1nc(C(=O)N2CCOC3(CCN(CCc4ccc(CCOCCC(=O)N(CCNCCc5ccc(O)c6c5OCC(=O)N6)C5CCCCC5)cc4)CC3)C2)cs1` [Example 2, N-Cyclohexyl-N-(2-(2-(5-hydroxy-3-oxo-3,4-dihydro-2H-benzo[b][1,4]oxazin-8-yl)ethylamino)ethyl)-3-(4-(2-(4-(2-Isopropylthiazole-4-carbonyl)-1-oxa-4,9-diazaspiro[5.5]undecan-9-371)ethyl)phenethoxy)propanamide ditrifluoroacetate], at Adrenergic β2, the EC50 is 31.6 nM and the “β2 Intrinsic Activity” value came out at 0.9. The compound also had a concentration for half-maximal inhibition (IC50) in assay [1] of 1 nM.

`CCCN(CCNCCc1ccc(O)c2[nH]c(=O)sc12)C(=O)CCOCCc1ccc(CCN2CCC3(CC2)CN(C(=O)c2csc(CC)n2)CCO3)cc1` [Example 3, 3-(4-(2-(4-(2-Ethylthiazole-4-carbonyl)-1-oxa-4,9-diazaspiro[5.5]undecan-9-yl)ethyl)phenethoxy)-N-(2-(2-(4-hydroxy-2-oxo-2,3-dihydrobenzo[d]thiazol-7-yl)ethylamino)ethyl)-N-propylpropanamide ditrifluoroacetate]: on Adrenergic β2, the EC50 was 200 nM and the “β2 Intrinsic Activity” value amounted to 1.0. In assay [1], this compound showed an IC50 of 1 nM.

In the case of `CCCCN(CCNCCc1ccc(O)c2c1OCC(=O)N2)C(=O)CCOCCc1ccc(CCN2CCC3(CC2)CN(C(=O)c2csc(C(C)C)n2)CCO3)cc1` [Example 4, N-Butyl-N-(2-(2-(5-hydroxy-3-oxo-3,4-dihydro-2H-benzo[b][1,4]oxazin-8-yl)ethylamino)ethyl)-3-(4-(2-(4-(2-isopropylthiazole-4-carbonyl)-1-oxa-4,9-diazaspiro[5.5]undecan-9-yl)ethyl)phenethoxy)propanamide ditrifluoroacetate], on Adrenergic β2, the EC50 is 25.1 nM and the “β2 Intrinsic Activity” value is given as 0.8. This compound gave an IC50 in assay [1] of 0.794 nM.

Regarding `Cc1nc(C(=O)N2CCOC3(CCN(CCc4ccc(CCOCCC(=O)N(CCNCCc5ccc(O)c6c5OCC(=O)N6)C5CCCCCC5)cc4)CC3)C2)cs1` [Example 5, N-Cycloheptyl-N-(2-(2-(5-hydroxy-3-oxo-3,4-dihydro-2H-benzo[b][1,4]oxazin-8-yl)ethylamino)ethyl)-3-(4-(2-(4-(2-methylthiazole-4-carbonyl)-1-oxa-4,9-diazaspiro[5.5]undecan-9-yl)ethyl)phenethoxy)propanamide ditrifluoroacetate], on Adrenergic β2, the EC50 is 20 nM and the “β2 Intrinsic Activity” value is 0.9. In assay [1], this compound gave an IC50 of 0.2 nM.

For the compound `CCCC[C@@H](C)N(CCNCCc1ccc(O)c2c1OCC(=O)N2)C(=O)CCOCCc1ccc(CCN2CCC3(CC2)CN(C(=O)c2csc(C)n2)CCO3)cc1` [Example 6, (R)—N-(Hexan-2-yl)-N-(2-(2-(5-hydroxy-3-oxo-3,4-dihydro-2H-benzo[b][1,4]oxazin-8-yl)ethylamino)ethyl)-3-(4-(2-(4-(2-methylthiazole-4-carbonyl)-1-oxa-4,9-diazaspiro[5.5]undecan-9-yl)ethyl)phenethoxy)propanamide ditrifluoroacetate], on Adrenergic β2, the EC50 is 31.6 nM and the “β2 Intrinsic Activity” value was 1.0. This compound also showed an IC50 in assay [1] of 0.1 nM.

On to `CC(C)c1nc(C(=O)N2CCOC3(CCN(Cc4cccc(CCOCCC(=O)N(CCNCCc5ccc(O)c6c5OCC(=O)N6)C5CCCCCC5)c4F)CC3)C2)cs1` [Example 7, N-Cycloheptyl-3-(2-fluoro-3-((4-(2-isopropylthiazole-4-carbonyl)-1-oxa-4,9-diazaspiro[5.5]undecan-9-yl)methyl)phenethoxy)-N-(2-(2-(5-hydroxy-3-oxo-3,4-dihydro-2H-benzo[b][1,4]oxazin-8-yl)ethylamino)ethyl)propanamide ditrifluoroacetate], for which, on Adrenergic β2, the EC50 is 39.8 nM and the “β2 Intrinsic Activity” value is on record as 1.0. Moreover, the IC50 in assay [1] is 0.631 nM.

With `CC(C)c1nc(C(=O)N2CCOC3(CCN(Cc4cccc(CCOCCC(=O)N(CCNCCc5ccc(O)c6c5OCC(=O)N6)Cc5ccccc5)c4F)CC3)C2)cs1` [Example 8, N-Benzyl-3-(2-fluoro-3-((4-(2-isopropylthiazole-4-carbonyl)-1-oxa-4,9-diazaspiro[5.5]undecan-9-yl)methyl)phenethoxy)-N-(2-(2-(5-hydroxy-3-oxo-3,4-dihydro-2H-benzo[b][1,4]oxazin-8-yl)ethylamino)ethyl)propanamide ditrifluoroacetate], on Adrenergic β2, the EC50 is 39.8 nM and the “β2 Intrinsic Activity” value was determined as 1.1. In addition, the IC50 in assay [1] was 0.251 nM.

Turning to `CCC(CC)c1nc(C(=O)N2CCOC3(CCN(Cc4cccc(CCOCCC(=O)N(CC)CCNCCc5ccc(O)c6c5OCC(=O)N6)c4F)CC3)C2)cs1` [Example 9, N-Ethyl-3-(2-fluoro-3-((4-(2-(pentan-3-yl)thiazole-4-carbonyl)-1-oxa-4,9-diazaspiro[5.5]undecan-9-yl)methyl)phenethoxy)-N-(2-(2-(5-hydroxy-3-oxo-3,4-dihydro-2H-benzo[b][1,4]oxazin-8-yl)ethylamino)ethyl)propanamide ditrifluoroacetate], on Adrenergic β2, the EC50 was 31.6 nM and the “β2 Intrinsic Activity” value is 0.8. The compound also had an IC50 in assay [1] of 0.501 nM.

As for `CCN(CCNCCc1ccc(O)c2[nH]c(=O)sc12)C(=O)CCOCCc1cccc(CN2CCC3(CC2)CN(C(=O)c2csc(C(C)C)n2)CCO3)c1F` [Example 10, N-Ethyl-3-(2-fluoro-3-((4-(2-isopropylthiazole-4-carbonyl)-1-oxa-4,9-diazaspiro[5.5]undecan-9-yl)methyl)phenethoxy)-N-(2-(2-(4-hydroxy-2-oxo-2,3-dihydrobenzo[d]thiazol-7-yl)ethylamino)ethyl)propanamide ditrifluoroacetate], on Adrenergic β2, the EC50 was 31.6 nM and the “β2 Intrinsic Activity” value is listed as 0.8. The IC50 in assay [1] is 0.631 nM.

As to `CC(C)c1nc(C(=O)N2CCOC3(CCN(Cc4cccc(CCOCCC(=O)N(CCNCCc5ccc(O)c6[nH]c(=O)sc56)C5CCOCC5)c4F)CC3)C2)cs1` [Example 11, 3-(2-Fluoro-3-((4-(2-isopropylthiazole-4-carbonyl)-1-oxa-4,9-diazaspiro[5.5]undecan-9-yl)methyl)phenethoxy)-N-(2-(2-(4-hydroxy-2-oxo-2,3-dihydrobenzo[d]thiazol-7-yl)ethylamino)ethyl)-N-(tetrahydro-2H-pyran-4-yl)propanamide ditrifluoroacetate], at Adrenergic β2, the EC50 was 79.4 nM and the “β2 Intrinsic Activity” value came to 1.1. Besides, the IC50 in assay [1] is 0.316 nM.

For `CCc1nc(C(=O)N2CCOC3(CCN(Cc4cccc(CCOCCC(=O)N(CCNCCc5ccc(O)c6c5OCC(=O)N6)C5CCCC5)c4Cl)CC3)C2)cs1` [Example 33a, 3-(2-chloro-3-((4-(2-ethylthiazole-4-carbonyl)-1-oxa-4,9-diazaspiro[5.5]undecan-9-yl)methyl)phenethoxy)-N-cyclopentyl-N-(2-(2-(5-hydroxy-3-oxo-3,4-dihydro-2H-benzo[b][1,4]oxazin-8-yl)ethylamino)ethyl)propanamide, sulphate salt], in assay [1], the IC50 was 0.501 nM.
